Assays:
Assay type in all cases: cell-based, Saccharomyces cerevisiae
[1] = tested on: QM strain; experiment: Toxicity test on QM strain (growth inhibition haloes); conditions: after three days
Description: 5 μl drops of OAG, LPA or oleic acid were deposited, from stock solutions in the concentrations indicated, on the surface of an agar medium on which the QM strain had been preliminarily spread. […] These haloes are on the contrary not observed in the presence of LPA and OAG.
At the same time, wild strains (WT) and QM are cultivated in aerobic conditions under stirring and at 28° C., in a YPG liquid medium before seeding 3500 cells per cm^2 of YPG+agar 2% (m/v). Following this transfer to solid medium, 1 μL drops of solutions of different compounds at 1, 10 and 100 mM in DMSO or EtOH are deposited on the surface of the agar. Separately, deposits of DMSO and EtOH are also made in order to assess the intrinsic toxicity of these two solvents. After three days of culture of 28° C., the toxicity of the tested compounds is evaluated by comparing the diameters of the growth inhibition haloes obtained for the deposits of undissolved solvents with those of the deposits of different concentrations of compounds tested.

[2] = tested on: hem1Δ yeasts; experiment: Restoration of growth of lipo-intoxicated hem1Δ yeasts (drop test on agar); conditions: SFA accumulation conditions; 5 μl drops on agar; after three days
Description: FIG. 3B—The hem1Δ yeasts were cultivated in conditions of SFA accumulation as indicated. 5 μl drops of OAG, LPA and oleic acid in the concentrations indicated were then deposited on the surface of the agar medium. The restoration of growth of the hem1Δ yeasts is observed in the formation of colonies after three days.
The strain carrying the hem1Δ strain is cultivated, under aerobic conditions, under stirring and at 28° C., in a YPG^A liquid medium (YPG (yeast extract 1% (m/v), peptone 1% (m/v) and glucose 2% (m/v)) supplemented with δ-aminolevulinic acid (ALA) at 80 μg/mL). Lipotoxicity by saturated fatty acids (SFA) is prompted by depletion of unsaturated fatty acids (UFA)—the synthesis of which is dependent on the presence of haem (prosthetic grouping of the enzyme Ole1p especially)—by transfer into YPG^+ medium (YPG supplemented with ergosterol at 80 μg/mL to compensate for the depletion in sterol obtained under these conditions). The lipotoxicity can be induced in a solid medium YPG^++agar 2% (m/v) in transferring 3500 cells (hem1Δ coming from a pre-culture in YPG^A)/cm^2 or *alternatively in a liquid medium in inoculating 2·10^6 cells/mL of YPG^+. Classically, the effects of lipotoxicity on SFA are analyzed 7 h after the transfer into YPG^+ medium. The capacity of a compound to counter the deleterious effects of lipotoxicity with SFA is for its part evaluated successively with the addition of this compound on (or in) the YPG^+ transfer medium after seeding with cells.
1) Screening of compounds: Following the induction of lipotoxicity with SFA (for hem1Δ cultivated in a solid medium), 5 μL drops of solutions of different compounds at 10 mM in dimethylsulfoxide (DMSO) or in ethanol (EtOH) are deposited on the surface of agar. The capacity of a compound to counter the lipo-induced stoppage of cell growth is estimated by the appearance of a halo of hem1Δ colonies at the position of the deposit of said compound after three days of culture at 28° C. (cf. Deguil et al., 2011).

[3] = tested on: hem1Δ yeasts; experiment: Phospholipid fatty acid content by mass spectrometry in lipo-intoxicated hem1Δ yeasts
Description: The hem1Δ yeasts were cultivated in standard conditions (control) or in conditions of SFA accumulation without (Ø) or with the addition of 100 μM of oleic acid, LPA or OAG as indicated.
FIG. 6A—After 7 h of incubation, the phospholipids (PL) were extracted and the different species of phosphatidylcholine (PC), which constitute the predominantly present PL were analyzed by mass spectrometry in positive mode, according to Pineau et al. (2008).
FIG. 6B—All the species of PL detectable in these conditions of mass spectrometry were analyzed to globally quantify the content in SFA forms.
The hem1Δ strain is cultivated in a YPG^A, YPG^+ or YPG^+ liquid medium+200 μM of compound to be tested in aerobic conditions, under stirring and at 28° C. for 7 h, starting from an initial cell concentration of 2·10^6 cells/mL. At the end of the culture, 10^8 cells are collected in order to carry out the extraction of the total lipids. After the cells have been put in suspension in 1 mL of distilled water at 4° C., 500 μL of glass beads (Ø 0.6 mm) are added and the whole mixture then undergoes three sequences of 20 seconds at 5000 rpm in a stirrer (the tubes are kept on ice between each of the three sequences). The cellular lysate then obtained, complemented with water for rinsing the beads (1 mL), is then transferred into a 40 mL glass tube (Corex™) and then the lipids are extracted by using a methanol:chloroform ratio of 2:1 (v/v). Initially, 6 mL of methanol are added and the entire mixture is vortexed for 30 seconds and then incubated for 15 minutes at 65° C. Once the mixture has been cooled to ambient temperature, […] of chloroform is added and then the entire mixture is again vortexed for 30 seconds before allowing the extraction to take place for 16 h. Subsequently, the sample is centrifuged for 12 minutes at 10000 g and then the supernatant is transferred into a new Corex™ tube. After the addition of 2 mL of chloroform and then 4 mL of distilled water, the entire mixture is vortexed for 30 seconds and then centrifuged for 8 minutes at 3000 g. After elimination of the resultant upper phase, the lower organic phase is collected in a hemolysis tube made of glass. Finally, the solvent is evaporated under a nitrogen stream at 80° C. to obtain total cell lipid samples.
The samples of total cell lipids are put back into suspension in 1 mL of dichloromethane in being vortexed for 30 seconds. The entire mixture is deposited on a silica column (BOND ELUT-SI, 100 mg 1 mL) preconditioned with 3 mL of methanol and then 2 mL of dichloromethane successively. The fraction retained by the column is then washed with 2 mL of dichloromethane and then 2 mL of acetone successively. Finally, 2 mL of a mixture of chloroform/methanol/water 50:45:5 (v/v/v) are deposited on the column and the phospholipids thus eluted are collected in a glass hemolysis tube. The solvent is evaporated under nitrogen at 80° C. to obtain the samples of cellular phospholipids.
Once put back into suspension in 100 μL of mixture Mix^− (isopropanol/acetonitrile/water 2:1:1 (v/v/v)+triethylamine 1% (v/v)) or mixture Mix^+ (isopropanol/acetonitrile/water 2:1:1 (v/v/v)+formic acid 1% (v/v)), the samples are analyzed by mass spectrometry (Electro Spray Ionization-Mass Spectrometry (ESI-MS)) in negative or positive mode respectively and the results obtained serve to analyze the fatty acid content of the different species of phospholipids.

SMILES: CCCCCCCC/C=C\CCCCCCCC(=O)O [oleic acid, reference compound]
- toxicity for cells that do not synthesize triglycerides ([1]; QM strain on agar medium): toxicity
- haloes of growth inhibition (absence of colonies) ([1]; QM strain, 5 μl drops on agar): haloes of growth inhibition (absence of colonies) can be observed
- restoration of growth of lipo-intoxicated hem1Δ yeasts (formation of colonies) [2]: restore the growth
- plasticity of membranes previously lipo-intoxicated by SFAs ([3]; hem1Δ yeast model): restores the plasticity of the membranes
- production of di-unsaturated phospholipids (level of PC species 36:2) ([3]; hem1Δ, SFA accumulation, 100 μM compound, 7 h): increase of the level of this species

— patent publication US9821000B2, “Compounds, compositions and corresponding uses for preventing and/or treating of dyslipidemia” (CENTRE NATIONAL DE LA RECHERCHE SCIENTIFIQUE (CNRS), priority 2013, dated 2017)
